Measured values taken from US5487898A, “Compositions and method for the sublingual or buccal administration therapeutic agents” (Abbott Laboratories, priority 1994, dated 1996).
Where two headings read alike, the source gives them in different places.

What was measured:
[1] = dog, in vivo
Procedure: The dose of administered leuprolide acetate mid the measurement of plasma leuprolide concentration are the same as described for FIG. 1.
In this and subsequent Examples, bioavailability is calculated and expressed either in terms of Area Under Curve (AUC) or as percent (%) bioavailability. AUC is determined by calculating the area under the curve of plots of time (X-axis) versus plasma concentration (Y-axis) of the administered polypeptide. Typically, AUC is determined over a 6 (0-6) or 8 (0-8) hour period. Percent bioavailability is calculated as the ratio [formula] Increases in AUC and/or bioavailability indicate increased bioavailability of the administered polypeptide.
In one such composition the pH value was adjusted to a value of about 7.0 with NaOH.
The liquid compositions were sublingually administered to dogs (0.1 ml/10 kg body wt) and the plasma levels of leuprolide measured over 8 hours.

[2] = dog, in vivo; remark: listed apart in the source

## CCNC(=O)[C@@H]1CCCN1C(=O)[C@H](CCCNC(=N)N)NC(=O)[C@H](CC(C)C)NC(=O)[C@@H](CC(C)C)NC(=O)[C@H](Cc1ccc(O)cc1)NC(=O)[C@H](CO)NC(=O)[C@H](Cc1c[nH]c2ccccc12)NC(=O)[C@H](Cc1c[nH]cn1)NC(=O)[C@@H]1CCC(=O)N1 [leuprolide acetate, 5-oxo-L-prolyl-L-histidyl-L-tryptophanyl-L-seryl-L-tyrosyl-D-leueyl-L-leueyl-L-arginyl-L-prolyl-ethylamide]
[1]
  bioavailability vs benzoic acid concentration (FIG. 3): directly proportional to benzoic acid concentration
[1]; pH 5.6
  Percent Bioavailability: 24.5%
[1]; pH 7
  Percent Bioavailability: 2.7%
[2]
  bioavailability, AUC 0-8 hours vs peppermint oil concentration (FIG. 4): increases the bioavailability
